Source: patent publication US5510345A, “Biologically active eburnamenine derivatives, pharmaceutical compositions containing them and process for preparing same” (Richter Gedeon Vegyeszeti Gyar Rt., priority 1992, dated 1996)
Where a name gives a salt, the structure may show the parent alone.

What was measured:
[1] = system: NADPH-induced lipid peroxidation in rat brain microsomes; experiment: Inhibition of the NADPH-induced (enzymatically induced) lipid peroxidation in brain microsomes; assay type: biochemical, rat (male Hannover-Wistar); conditions: 20 min, 37° C., pH 6.8, 0.4 mM NADPH, malondialdehyde at 535 nm, N.I.: no inhibition
From the text: The pharmacological effect of the eburnamenine derivatives of the formula (I) was studied as described hereinafter. […] The antioxidative effect was investigated on microsomes prepared from rat brain J. Neurochem. 37, pages 422-426 (1981)! and on rat brain homogenate J. Biol Chem. 262, pages 10438-10440 (1987)!. Inhibition of the NADPH-induced lipid peroxidation in brain microsomes Male Hannover-Wistar rats with a body weight of 150-250 g were used for the preparation of microsomes. After decapitation, the whole brain of the rat was removed and homogenized in a 10-fold volume of ice-cold 0.25M saccharose solution. The homogenate was centrifuged in a Hitachi CR 26H equipment at 15000×g at 4° C. for 10 minutes, then the supernatant was collected and centrifuged in a Hitachi SC[…] equipment at 78000×g at 4° C. for 60 minutes. After suspending the precipitate in 0.15M potassium chloride solution, the protein content of the obtained solution was determined and then adjusted to 10 mg/ml concentration. The microsome thus obtained was frozen in a dry ice-acetone mixture and stored at -70° C. until use. The components of the incubation mixtures were: 50 mM tris(hydroxymethyl)aminomethane hydrochloride (pH 6.8), 0.2 mM ferric chloride, 1 mM potassium dihydrogen phosphate, 0.5 mM adenosine-5'-diphosphate, 0.2 mg of microsomes as well as the compound to be tested. The incubation was carried out with a final volume of 1 ml and an incubation time of 20 minutes at a temperature of 37° C. The lipid peroxidation was induced by adding 0.4 mM NADPH ([…], reduced form). […] The formation of malondialdehyde was determined by using thiobarbituric acid. After stopping the reaction, 1 ml of 1% thiobarbituric acid solution each was added to the samples, which were then 10 placed in a water bath of about 100° C. for 10 minutes. Subsequently, the samples were centrifuged at 2000×g in a Janetzki K70 apparatus at 4° C. for 10 minutes. The absorbance value of the colored supernatant was measured at 535 nm in a Hitachi 150-20 spectrophotometer. Malondialdehyde bis(diethylacetal) was used as reference compound. The IC50 values of the compounds were determined on the basis of the concentration/effect correlations thereof and are indicated in Table I.

[2] = system: Fe^2+-induced lipid peroxidation in rat brain homogenate; experiment: Effect on the Fe^2+-induced (non-enzymatically induced) lipid peroxidation in brain homogenate; assay type: biochemical, rat (Hannover-Wistar); conditions: for IC50: rat brain homogenate, 20 min, 37° C., pH 7.4, 8 mM ferrous diammonium disulfate solution (5 μl), malondialdehyde at 535 nm, read-out: Inhibition of the Fe^2+-induced lipid peroxidation IC50; for antioxidant activity compared with tirilazad mesylate / inhibition of the Fe^2+-induced lipid peroxidation compared with silymarin or ellagic acid / inhibitory effect on the Fe^2+-induced lipid peroxidation compared with DL-α-tocopherol: in words, from Table I
Protocol: Effect on the Fe^2 +-induced lipid peroxidation in brain homogenate
After decapitating Hannover-Wistar rats weighing 150-220 g each, the whole brain was homogenized in 9 volumes of icecold Krebs-Ringer's buffer containing 15 mM 4-(2-hydroxyethyl)-1-(piperazinylethanesulfonic acid (abbreviated: HEPES, pH 7.4), 140 mM sodium chloride, 3.6 mM potassium chloride, 1.5 mM calcium chloride, 0.7 mM magnesium chloride, 1.4 mM potassium dihydrogen phosphate and 10 mM glucose!. Then, the protein content of the solution was determined and adjusted to 10 mg/ml concentration.
After adding the inhibitory agent to be tested in a volume of 5 ml to 200 μl of the homogenate, the incubation mixture was incubated at 37° C. for 20 minutes. The Fe^2+ -induced lipid peroxidation was accomplished by adding 5 μl of 8 mM ferrous diammonium disulfate Fe(NH4)2 (SO4)2 ! solution. After passing of the incubation time, the reaction was stopped by adding 1 ml of a stopping solution containing 0.8M hydrogen chloride in trichloroacetic acid solution of 12.5%; then the samples were centrifuged at 2000×g in a Janetzki apparatus at 4° C. for 10 minutes.
To 0.5 ml portion of the supernatant, 1 ml of 1% thiobarbituric acid solution was added, then the samples were placed in a water bath of 100° C. for 20 minutes. The color intensity developed was determined at 535 nm with the aid of a Hitachi 150-20 spectrophotometer by using malondialdehyde bis(diethylacetal) as reference compound.

Row | Inhibition of the NADPH-induced lipid peroxidation IC50 [1] | IC50 [2] [µM] | IC50 [1] [µM] | SMILES | antioxidant activity compared with tirilazad mesylate [2] | inhibition of the Fe^2+-induced lipid peroxidation compared with silymarin or ellagic acid [2] | inhibitory effect on the Fe^2+-induced lipid peroxidation compared with DL-α-tocopherol [2]
1 |  | 124 | 24.2 | CC[C@@]12C=C(C(=O)N3CCN(c4cc(N5CCCC5)nc(N5CCCC5)n4)CC3)n3c4c(c5ccccc53)CCN(CCC1)[C@H]42 [Compound 1, 1-(3α,16α)-eburnamenine-14-carbonyl!-4-2,6-bis(pyrrolidino)-4-pyrimidinyl!piperazine] | reaches and even exceeds to some extent the lipid peroxidation-inhibiting effect of tirilazad mesylate |  | 
2 |  | 112 | 6.2 | CC[C@@]12C=C(CN3CCN(c4cc(N5CCCC5)nc(N5CCCC5)n4)CC3)n3c4c(c5ccccc53)CCN(CCC1)[C@H]42 [Compound 2, 1-{ (3α,16α)-eburnamenine-14-yl!methyl}-4-2,6-bis(pyrrolidino)-4-pyrimidinyl!piperazine trihydrobromide] | reaches and even exceeds to some extent the lipid peroxidation-inhibiting effect of tirilazad mesylate |  | 
3 |  | 11.4 | 2.4 | CCC12C=C(C(=O)N3CCN(c4cc(N5CCCC5)nc(N5CCCC5)n4)CC3)n3c4c(c5ccccc53)CCN(CCC1)C42 (stereo not drawn) [Compound 3, 1-(16α)-eburnamenine-14-carbonyl!-4-2,6-bis(pyrrolidino)-4-pyrimidinyl!piperazine] |  | more effectively than the hepatoprotective silymarin or the anticancerogenic ellagic acid | reaches the antioxidant activity of the therapeutically used DL-α-tocopherol
4 |  | 10.3 | 3.1 | CCC12C=C(C(=O)N3CCN(c4cc(N5CCCC5)nc(N5CCCC5)n4)CC3)n3c4c(c5ccccc53)CCN(CCC1)C42 (stereo not drawn) [Compound 4, 1-(3α)-eburnamenine-14-carbonyl!-4-2,6-bis(pyrrolidino)-4-pyrimidinyl!piperazine] |  | more effectively than the hepatoprotective silymarin or the anticancerogenic ellagic acid | reaches the antioxidant activity of the therapeutically used DL-α-tocopherol

Second part, the compound before the results:

Row | SMILES | Inhibition of the NADPH-induced lipid peroxidation IC50 [1] | IC50 [2] [µM] | IC50 [1] [µM] | antioxidant activity compared with tirilazad mesylate [2] | inhibition of the Fe^2+-induced lipid peroxidation compared with silymarin or ellagic acid [2] | inhibitory effect on the Fe^2+-induced lipid peroxidation compared with DL-α-tocopherol [2]
5 | Cc1c(C)c2c(c(C)c1O)CCC(C)(CCCC(C)CCCC(C)CCCC(C)C)O2 (racemic) [DL-α-Tocopherol, reference compound] | N.I. | 10.5 |  |  |  | 
6 | O=c1oc2c(O)c(O)cc3c(=O)oc4c(O)c(O)cc1c4c23 [Ellagic acid, 4,4',5,5',6,6'-hexahydrodiphenic acid 2,6':2',6-dilactone, reference compound] |  | 51 | 47.2 |  |  | 
7 | C[C@@H]1C[C@H]2[C@@H]3CCC4=CC(=O)C=C[C@]4(C)C3=CC[C@]2(C)[C@H]1C(=O)CN1CCN(c2cc(N3CCCC3)nc(N3CCCC3)n2)CC1 [Tirilazad mesylate, 16α-methyl-21-{4-2,4-bis(pyrrolidino)6-pyrimidinyl!-1-piperazinyl}-pregna-1,4,9(11)-trien-3,20-dione methanesulfonate, reference compound] |  | 135 | 121 |  |  | 
